Counter-ions that a name gives are not always drawn.
How the values were obtained:
Assay type in all cases: cell-based
[1] = target: T1, human S1P5 receptor (S1PR5) (Homo sapiens, UniProt Q9H228); test: Intracellular Ca2+ release (method 1), agonist potency and efficacy, S1P5; conditions: for Emax: maximum effect in % of reference agonist phospho-fingolimod (100%), read-out: hS1P5 EMax; for EC50: recombinant CHO-K1 cells expressing human S1PR5, aequorin, Gq/i5, Ca2+ release, read-out: S1P5 EC50 range
T1 construct: host or cells: CHO-K1
Method: (§1) Agonistic activity and efficacy of compounds was assessed in recombinant cells using method 1 described below.
(§2) Agonist potency and efficacy were assessed by measurement of intracellular Ca^2+ release. Recombinant CHO-K1 cells (Euroscreen, Brussels, Belgium) expressing human S1PR5, S1PR1, S1PR3 or S1PR4 receptors, aequorin, and GTP binding protein Gq/i5 were cultured using a medium containing nutrient mixture F-12 Ham (Sigma-Aldrich) with 10% FBS, and 100 μg/mL gentamicin and equilibrated at 5% CO2.
(§3) 15,000 cells in 20 μL medium were seeded into Biocoat poly-D-Lysine coated 384 well plates (Becton Dickinson #35-6663) and grown to 95% confluency after 24 h.
(§4) Culture medium was replaced by an assay buffer consisting of HBBS with Ca^2+ and Mg^2+ (Invitrogen #14025-050), 20 mmol/L Hepes (Sigma-Aldrich #H-3375), 2.5 mmol/L probenecid (Sigma-Aldrich #P-8761, and 0.1% BSA (Sigma-Aldrich #A-7030) pH 7.4. The Calcium 5 no-wash FLIPR assay kit (Molecular Devices #5000625) was performed as described in the kit instructions. Cells were incubated with Calcium 5 dye for 1 h at 37° C., 5% CO2 in the dark. After 45 min adaptation to RT assessment of agonist stimulation of intracellular Ca^2+ release was performed by addition of test compounds at various concentrations obtained by serial dilution. Phospho-fingolimod was used as positive control and reference agonist (intrinsic activity 100%).
(§5) Agonism of test compounds at the human S1Px receptors were characterized by the EC50 values (potencies) deduced from a nonlinear 4 parametric logistic curve fit to the measured fluorescence data after normalization to the lower and upper plateaus of the fitted reference agonist's (phospho-fingolimod)effect curve and by their efficacy (Emax) values represented by their maximum achievable effects in % of the reference agonist's efficacy, which is defined as an Emax of 100%.

[2] = target: T2, human S1P1 receptor (S1PR1) (Homo sapiens, UniProt P21453); test: Intracellular Ca2+ release (method 1), agonist potency, S1P1; conditions: CHO-K1 cells expressing human S1PR1
T2 construct: host or cells: CHO-K1
Method: as §1, §2, §3, §4, §5

[3] = target: T3, human S1P3 receptor (S1PR3) (Homo sapiens, UniProt Q99500); test: Intracellular Ca2+ release (method 1), agonist potency, S1P3; conditions: CHO-K1 cells expressing human S1PR3
T3 construct: host or cells: CHO-K1
Method: as §1, §2, §3, §4, §5

[4] = target: T4, human S1P4 receptor (S1PR4) (Homo sapiens, UniProt O95977); test: Intracellular Ca2+ release (method 1), agonist potency, S1P4; conditions: CHO-K1 cells expressing human S1PR4
T4 construct: host or cells: CHO-K1
T4 sequence (O95977 1-384): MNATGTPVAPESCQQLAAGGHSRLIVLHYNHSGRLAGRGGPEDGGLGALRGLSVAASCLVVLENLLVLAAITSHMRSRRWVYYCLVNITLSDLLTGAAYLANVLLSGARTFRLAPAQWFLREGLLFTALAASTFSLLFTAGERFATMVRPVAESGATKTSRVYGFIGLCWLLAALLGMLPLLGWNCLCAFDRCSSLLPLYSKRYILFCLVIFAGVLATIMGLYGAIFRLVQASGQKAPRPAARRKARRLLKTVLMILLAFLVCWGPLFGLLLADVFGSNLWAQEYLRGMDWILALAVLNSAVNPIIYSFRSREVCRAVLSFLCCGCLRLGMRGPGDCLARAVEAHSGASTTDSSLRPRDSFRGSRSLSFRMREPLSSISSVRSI
Method: as §1, §2, §3, §4, §5

T2 sequence (P21453 whole entry): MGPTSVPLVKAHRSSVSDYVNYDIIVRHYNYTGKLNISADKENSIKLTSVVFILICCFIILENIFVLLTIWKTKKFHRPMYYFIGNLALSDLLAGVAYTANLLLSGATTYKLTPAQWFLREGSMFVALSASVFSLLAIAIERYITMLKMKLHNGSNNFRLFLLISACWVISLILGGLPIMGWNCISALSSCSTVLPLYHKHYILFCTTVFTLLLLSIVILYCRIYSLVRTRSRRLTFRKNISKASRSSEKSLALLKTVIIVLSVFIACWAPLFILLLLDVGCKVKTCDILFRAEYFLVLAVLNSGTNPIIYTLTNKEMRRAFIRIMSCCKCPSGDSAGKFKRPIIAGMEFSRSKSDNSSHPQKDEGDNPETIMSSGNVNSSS
T3 sequence (Q99500 whole entry): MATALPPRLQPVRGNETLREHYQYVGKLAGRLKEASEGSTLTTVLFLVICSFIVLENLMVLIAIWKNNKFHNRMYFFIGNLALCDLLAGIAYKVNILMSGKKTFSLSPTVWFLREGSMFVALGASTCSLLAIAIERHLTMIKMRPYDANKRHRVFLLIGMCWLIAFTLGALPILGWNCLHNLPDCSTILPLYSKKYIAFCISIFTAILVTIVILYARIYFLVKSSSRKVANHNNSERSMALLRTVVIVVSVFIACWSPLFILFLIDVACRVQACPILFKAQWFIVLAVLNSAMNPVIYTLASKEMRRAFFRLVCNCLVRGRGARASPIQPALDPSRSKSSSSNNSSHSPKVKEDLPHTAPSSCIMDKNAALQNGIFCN
T1 sequence (Q9H228 whole entry): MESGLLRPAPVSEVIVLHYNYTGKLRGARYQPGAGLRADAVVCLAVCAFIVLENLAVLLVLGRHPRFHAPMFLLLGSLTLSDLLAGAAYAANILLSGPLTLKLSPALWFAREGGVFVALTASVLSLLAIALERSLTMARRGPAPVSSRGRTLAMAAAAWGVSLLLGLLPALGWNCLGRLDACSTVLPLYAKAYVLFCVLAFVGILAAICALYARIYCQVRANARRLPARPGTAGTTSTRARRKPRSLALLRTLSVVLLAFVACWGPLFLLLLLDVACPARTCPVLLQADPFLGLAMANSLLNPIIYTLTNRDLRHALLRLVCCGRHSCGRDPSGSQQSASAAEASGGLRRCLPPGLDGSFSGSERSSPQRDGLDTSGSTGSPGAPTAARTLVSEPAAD

SMILES	Emax [1]	EC50 [1]	EC50 ([2]; cells given as bound)	EC50 [3]	EC50 [4]	EC50 ([4]; cells given as bound)	EC50 [2]
CCc1cccc(Cl)c1COc1ccc2c(c1)C1(CC1)CN(CC(=O)O)C2 [Compound 13, 2-(6′-((2-Chloro-6-ethylbenzyl)oxy)-1′H-spiro[cyclopropane-1,4′-isoquinolin]-2′(3′H)-yl)acetic acid]	50 to 100%	< 10 nM	> 1000 nM	> 1000 nM	100 to 1000 nM	–	–
O=C(O)CCCN1Cc2ccc(OCc3ccccc3OC(F)(F)F)cc2C2(CC2)C1 [Compound 14, 4-(6′-((2-(Trifluoromethoxy)benzyl)oxy)-1′H-spiro[cyclopropane-1,4′-isoquinolin]-2′(3′H)-yl)butanoic acid]	50 to 100%	< 10 nM	> 1000 nM	> 1000 nM	100 to 1000 nM	–	–
O=C(O)CCCN1Cc2ccc(OCc3c(Cl)cccc3Cl)cc2C2(CC2)C1 [Compound 15, 4-(6′-((2,6-Dichlorobenzyl)oxy)-1′H-spiro[cyclopropane-1,4′-isoquinolin]-2′(3′H)-yl)butanoic acid]	> 100%	< 10 nM	> 1000 nM	> 1000 nM	10 to 100 nM	–	–
O=C(O)CCCN1Cc2ccc(OCc3ccc(F)c(F)c3)cc2C2(CC2)C1 [Compound 18, 4-(6′-((3,4-Difluorobenzyl)oxy)-1′H-spiro[cyclopropane-1,4′-isoquinolin]-2′(3′H)-yl)butanoic acid]	< 50%	10 to 100 nM	> 1000 nM	> 1000 nM	100 to 1000 nM	–	–
O=C(O)CCCN1Cc2ccc(OCc3ccccc3F)cc2C2(CC2)C1 [Compound 19, 4-(6′-((2-Fluorobenzyl)oxy)-1′H-spiro[cyclopropane-1,4′-isoquinolin]-2′(3′H)-yl)butanoic acid]	50 to 100%	< 10 nM	> 1000 nM	> 1000 nM	–	> 1000 nM	–
O=C(O)CCCN1Cc2ccc(OCc3cccc(OC(F)(F)F)c3)cc2C2(CC2)C1 [Compound 20, 4-(6′-((3-(Trifluoromethoxy)benzyl)oxy)-1′H-spiro[cyclopropane-1,4′-isoquinolin]-2′(3′H)-yl)butanoic acid]	< 50%	10 to 100 nM	> 1000 nM	> 1000 nM	100 to 1000 nM	–	–
O=C(O)CCCN1Cc2ccc(OCc3cccc(F)c3F)cc2C2(CC2)C1 [Compound 21, 4-(6′-((2,3-Difluorobenzyl)oxy)-1′H-spiro[cyclopropane-1,4′-isoquinolin]-2′(3′H)-yl)butanoic acid]	< 50%	10 to 100 nM	> 1000 nM	> 1000 nM	100 to 1000 nM	–	–
Cc1ccccc1COc1ccc2c(c1)C1(CC1)CN(CCCC(=O)O)C2 [Compound 22, 4-(6′-((2-Methylbenzyl)oxy)-1′H-spiro[cyclopropane-1,4′-isoquinolin]-2′(3′H)-yl)butanoic acid]	50 to 100%	< 10 nM	> 1000 nM	> 1000 nM	100 to 1000 nM	–	–
O=C(O)CCCN1Cc2ccc(OCc3cccc(F)c3)cc2C2(CC2)C1 [Compound 23, 4-(6′-((3-Fluorobenzyl)oxy)-1′H-spiro[cyclopropane-1,4′-isoquinolin]-2′(3′H)-yl)butanoic acid]	50 to 100%	10 to 100 nM	> 1000 nM	> 1000 nM	–	> 1000 nM	–
O=C(O)CCCN1Cc2ccc(OCc3cccc(Cl)c3)cc2C2(CC2)C1 [Compound 24, 4-(6′-((3-Chlorobenzyl)oxy)-1′H-spiro[cyclopropane-1,4′-isoquinolin]-2′(3′H)-yl)butanoic acid]	50 to 100%	< 10 nM	> 1000 nM	> 1000 nM	100 to 1000 nM	–	–
O=C(O)CCCN1Cc2ccc(OCc3ccccc3Cl)cc2C2(CC2)C1 [Compound 25, 4-(6′-((2-Chlorobenzyl)oxy)-1′H-spiro[cyclopropane-1,4′-isoquinolin]-2′(3′H)-yl)butanoic acid]	50 to 100%	< 10 nM	> 1000 nM	> 1000 nM	100 to 1000 nM	–	–
O=C(O)CCCN1Cc2ccc(OCc3ccc(Cl)c(Cl)c3)cc2C2(CC2)C1 [Compound 26, 4-(6′-((3,4-Dichlorobenzyl)oxy)-1′H-spiro[cyclopropane-1,4′-isoquinolin]-2′(3′H)-yl)butanoic acid]	50 to 100%	10 to 100 nM	> 1000 nM	> 1000 nM	10 to 100 nM	–	–
CCc1cccc(Cl)c1COc1ccc2c(c1)C1(CC1)CN(CCCC(=O)O)C2 [Compound 27, 4-(6′-((2-Chloro-6-ethylbenzyl)oxy)-1′H-spiro[cyclopropane-1,4′-isoquinolin]-2′(3′H)-yl)butanoic acid]	> 100%	< 10 nM	> 1000 nM	> 1000 nM	< 10 nM	–	–
CCc1cccc(Cl)c1COc1ccc2c(c1)C1(CC1)CN(C(C)C(=O)O)C2 (stereo not shown) [Compound 28, 2-(6′-((2-Chloro-6-ethylbenzyl)oxy)-1′H-spiro[cyclopropane-1,4′-isoquinolin]-2′(3′H)-yl)propanoic acid]	50 to 100%	10 to 100 nM	> 1000 nM	> 1000 nM	100 to 1000 nM	–	–
CC(C)c1ccc(C#Cc2ccc3c(c2)C2(CC2)CN(CCC(=O)O)C3)cc1 [Compound 31, 3-(6′-((4-isopropylphenyl)ethynyl)-1′H-spiro[cyclopropane-1,4′-isoquinolin]-2′(3′H)-yl)propanoic acid acetic acid salt (1:1)]	> 100%	< 10 nM	–	> 1000 nM	–	> 1000 nM	100 to 1000 nM
O=C(O)CCN1Cc2ccc(C#Cc3cc(F)cc(F)c3)cc2C2(CC2)C1 [Compound 32, 3-(6′-((3,5-difluorophenyl)ethynyl)-1′H-spiro[cyclopropane-1,4′-isoquinolin]-2′(3′H)-yl)propanoic acid acetic acid salt (1:1)]	50 to 100%	< 10 nM	> 1000 nM	> 1000 nM	100 to 1000 nM	–	–
O=C(O)CCN1Cc2ccc(C#Cc3cccc(Cl)c3)cc2C2(CC2)C1 [Compound 33, 3-(6′-((3-chlorophenyl)ethynyl)-1′H-spiro[cyclopropane-1,4′-isoquinolin]-2′(3′H)-yl)propanoic acid acetic acid salt (1:1)]	< 50%	< 10 nM	> 1000 nM	> 1000 nM	< 10 nM	–	–
CCOc1ccc(C#Cc2ccc3c(c2)C2(CC2)CN(CCC(=O)O)C3)cc1 [Compound 34, 3-(6′-((4-ethoxyphenyl)ethynyl)-1′H-spiro[cyclopropane-1,4′-isoquinolin]-2′(3′H)-yl)propanoic acid acetic acid salt (1:1)]	50 to 100%	< 10 nM	> 1000 nM	> 1000 nM	–	> 1000 nM	–
O=C(O)CCN1Cc2ccc(C#Cc3ccccc3Cl)cc2C2(CC2)C1 [Compound 35, 3-(6′-((2-chlorophenyl)ethynyl)-1′H-spiro[cyclopropane-1,4′-isoquinolin]-2′(3′H)-yl)propanoic acid]	50 to 100%	< 10 nM	> 1000 nM	> 1000 nM	100 to 1000 nM	–	–
O=C(O)CCN1Cc2ccc(C#Cc3c(F)cccc3F)cc2C2(CC2)C1 [Compound 36, 3-(6′-((2,6-difluorophenyl)ethynyl)-1′H-spiro[cyclopropane-1,4′-isoquinolin]-2′(3′H)-yl)propanoic acid acetic acid salt (1:1)]	50 to 100%	< 10 nM	> 1000 nM	> 1000 nM	100 to 1000 nM	–	–

Source: patent US20210147381A1, “1,2,3,4-SUBSTITUTED QUINOLINE COMPOUNDS AS SIP MODULATORS” (AbbVie Deutschland GmbH & Co. KG, priority 2017, published 2021)
